# From publication PMC11173529, “Structure–Activity Relationship Studies in a Series of Xanthine Inhibitors of SLACK Potassium Channels” (Molecules, 2024)
# pIC50: −log10 of the molar value.
# Target: T1, WT hSLACK (Homo sapiens, UniProt Q5JUK3)
# T1 construct: host or cells: CHO-K1
# T1 sequence (Q5JUK3 1-1235 isoform Q5JUK3-3): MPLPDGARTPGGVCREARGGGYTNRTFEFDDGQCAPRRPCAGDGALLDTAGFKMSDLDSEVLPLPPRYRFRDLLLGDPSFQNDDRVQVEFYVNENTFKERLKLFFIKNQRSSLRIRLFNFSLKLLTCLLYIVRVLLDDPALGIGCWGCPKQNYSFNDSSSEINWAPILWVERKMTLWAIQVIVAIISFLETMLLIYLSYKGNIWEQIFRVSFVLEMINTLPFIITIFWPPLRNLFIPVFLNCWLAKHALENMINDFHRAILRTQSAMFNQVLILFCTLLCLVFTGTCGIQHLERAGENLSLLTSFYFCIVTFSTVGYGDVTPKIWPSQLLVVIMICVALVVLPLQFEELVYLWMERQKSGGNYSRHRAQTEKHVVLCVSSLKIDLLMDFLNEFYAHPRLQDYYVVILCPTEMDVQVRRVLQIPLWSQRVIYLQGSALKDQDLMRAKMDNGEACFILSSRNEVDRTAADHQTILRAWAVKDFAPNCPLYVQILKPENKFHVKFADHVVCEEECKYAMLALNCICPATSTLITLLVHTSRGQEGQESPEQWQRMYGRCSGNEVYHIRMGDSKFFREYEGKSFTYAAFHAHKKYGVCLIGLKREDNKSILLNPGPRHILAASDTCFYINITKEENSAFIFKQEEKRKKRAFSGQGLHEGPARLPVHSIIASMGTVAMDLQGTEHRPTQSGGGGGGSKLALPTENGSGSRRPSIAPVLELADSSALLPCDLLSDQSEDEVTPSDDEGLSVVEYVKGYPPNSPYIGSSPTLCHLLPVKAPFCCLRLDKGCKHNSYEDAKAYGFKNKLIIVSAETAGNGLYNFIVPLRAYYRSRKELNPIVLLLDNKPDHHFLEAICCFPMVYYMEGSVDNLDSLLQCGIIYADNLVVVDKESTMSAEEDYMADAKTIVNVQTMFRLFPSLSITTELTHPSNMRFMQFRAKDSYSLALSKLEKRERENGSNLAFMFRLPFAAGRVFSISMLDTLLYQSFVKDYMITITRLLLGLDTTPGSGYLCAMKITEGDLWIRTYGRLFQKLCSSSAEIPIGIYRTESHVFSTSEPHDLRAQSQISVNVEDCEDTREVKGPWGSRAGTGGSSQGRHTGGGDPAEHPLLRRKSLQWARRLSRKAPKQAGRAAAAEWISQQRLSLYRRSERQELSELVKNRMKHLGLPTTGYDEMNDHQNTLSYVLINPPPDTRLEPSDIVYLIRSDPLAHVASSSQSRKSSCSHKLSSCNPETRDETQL
# Assay: Whole-cell automated patch-clamp (APC) in CHO cells stably expressing WT hSLACK
# Format: cell-based
# Settings: maximum inhibition at 30 µM test compound standardized to VU0606170 (set at 100%); WT hSLACK
# Procedure: All new analogs were tested in our APC assay using CHO cells stably expressing WT SLACK using a concentration-response format with concentrations ranging from 0.125 to 30 μM in half-log steps and a minimum of three cells (replicates) per concentration series. […] Still, there were some notable results. For example, substitution at the 4-position was largely unfavorable regardless of the nature of the substituent (21, 24, 27, 30, and 33) apart from the 4-fluoro analog 18. […] As the trifluoromethyl group is similar in electronegativity to chlorine, but larger than both methyl and chlorine, perhaps the steric bulk of the trifluoromethyl is to blame for the poor potency of these analogs. With the exception of the fluoro (16–18) and cyano (28–30) analogs, substitution at the 3-position was favorable for SLACK activity, with 3-methoxy analog 32 standing out in this set.
# Stably transfected monoclonal HEK293 cell lines expressing Slick, Maxi-K α1/β3, Maxi-K α1/β4, CaV3.2, GIRK 1/2, KV2.1, KV7.2, NaV1.7, and TASK-1 were generated as previously described. Stably transfected monoclonal HEK293 cell lines expressing hERG were generated as previously described. CHO-K1 cells expressing human Slack and disease-associated human Slack mutations, G288S and A934T, were generated by transfecting a PiggyBac TRE mammalian expression vector (VectorBuilder, Chicago, IL, USA) containing KCNT1. FuGENE 6 (Promega, Madison, WI, USA) transfection reagent and protocol, together with Opti-MEM (Thermo Fisher Scientific, Walkham, MA, USA), were utilized.
# Automated patch-clamp recording was performed with a SyncroPatch 768 PE system (Nanion, Munich, Germany) as previously described. Whole-cell recordings were performed at room temperature. Cells were harvested by first washing with PBS without Mg^2+ or Ca^2+ (Gibco, Billings, MT, USA) to remove cell culture media, followed by dissociation with TryPLE (Gibco, Billings, MT, USA). Cells were then resuspended and diluted to 100,000 cells/mL in external solution. External solution contained 105 mM NaCl, 4 mM KCl, 1 mM MgCl2, 5 mM CaCl2, 10 mM HEPES, and 40 mM N-Methyl-D-glucamine chloride, titrated to pH of 7.4 and osmolarity of 300 mOsm/kg; internal solution contained 70 mM NaCl, 70 mM KF, 10 mM KCl, 5 mM EGTA, and 5 mM HEPES, titrated to a pH of 7.2 and osmolarity of 295 mOsm/kg.
# The APC protocol was set as follows: Cells were held at a […] of −80 mV for 100 ms, then a ramp protocol was performed from −100 mV to 80 mV at 0.4 mV/ms, followed by holding the cell at −80 mV for another 100 ms, then steps were performed at −20 mV, 0 mV, +20 mV, +40 mV, and +60 mV for 100 ms of each step. Whole-cell currents were measured at 0 mV and normalized to current after external buffer addition. […] To obtain the concentration-response relationship graphs and IC50 values, we take the median value of the last 7 current amplitude values obtained for each set of data points collected for a given concentration at a particular step.
row,SLACK Imax [%],SMILES
1,100,CN(Cc1ccccc1)c1nc2c(c(=O)n(Cc3ccccc3)c(=O)n2C)n1C [Analog 8]
2,100,CN(Cc1ccccc1)c1nc2c(c(=O)n(Cc3ccccc3F)c(=O)n2C)n1C [Analog 16]
3,100,CN(Cc1ccccc1)c1nc2c(c(=O)n(Cc3cccc(F)c3)c(=O)n2C)n1C [Analog 17]
4,100,CN(Cc1ccccc1)c1nc2c(c(=O)n(Cc3ccc(F)cc3)c(=O)n2C)n1C [Analog 18]
5,89,CN(Cc1ccccc1)c1nc2c(c(=O)n(Cc3ccccc3Cl)c(=O)n2C)n1C [Analog 19]
6,100,CN(Cc1ccccc1)c1nc2c(c(=O)n(Cc3cccc(Cl)c3)c(=O)n2C)n1C [Analog 20]
7,100,CN(Cc1ccccc1)c1nc2c(c(=O)n(Cc3ccc(Cl)cc3)c(=O)n2C)n1C [Analog 21]
8,100,Cc1ccccc1Cn1c(=O)c2c(nc(N(C)Cc3ccccc3)n2C)n(C)c1=O [Analog 22]
9,100,Cc1cccc(Cn2c(=O)c3c(nc(N(C)Cc4ccccc4)n3C)n(C)c2=O)c1 [Analog 23]
10,102,Cc1ccc(Cn2c(=O)c3c(nc(N(C)Cc4ccccc4)n3C)n(C)c2=O)cc1 [Analog 24]
11,70,CN(Cc1ccccc1)c1nc2c(c(=O)n(Cc3ccccc3C(F)(F)F)c(=O)n2C)n1C [Analog 25]
12,100,CN(Cc1ccccc1)c1nc2c(c(=O)n(Cc3cccc(C(F)(F)F)c3)c(=O)n2C)n1C [Analog 26]
13,79,CN(Cc1ccccc1)c1nc2c(c(=O)n(Cc3ccc(C(F)(F)F)cc3)c(=O)n2C)n1C [Analog 27]
14,99,CN(Cc1ccccc1)c1nc2c(c(=O)n(Cc3ccccc3C#N)c(=O)n2C)n1C [Analog 28]
15,100,CN(Cc1ccccc1)c1nc2c(c(=O)n(Cc3cccc(C#N)c3)c(=O)n2C)n1C [Analog 29]
16,100,CN(Cc1ccccc1)c1nc2c(c(=O)n(Cc3ccc(C#N)cc3)c(=O)n2C)n1C [Analog 30]
17,100,COc1ccccc1Cn1c(=O)c2c(nc(N(C)Cc3ccccc3)n2C)n(C)c1=O [Analog 31]
18,78,COc1ccc(Cn2c(=O)c3c(nc(N(C)Cc4ccccc4)n3C)n(C)c2=O)cc1 [Analog 33]
19,87,CCn1c(N(C)Cc2ccccc2)nc2c1c(=O)n(Cc1ccccc1)c(=O)n2C [Analog 41]
20,94,CCCn1c(N(C)Cc2ccccc2)nc2c1c(=O)n(Cc1ccccc1)c(=O)n2C [Analog 42]

# Same assay, conditions: whole-cell APC, CHO cells stably expressing WT hSLACK, averages n ≥ 3; read-out: SLACK IC50
row,pIC50,SMILES
1,5.77,CN(Cc1ccccc1)c1nc2c(c(=O)n(Cc3ccccc3)c(=O)n2C)n1C [Analog 8]
2,5.74,CN(Cc1ccccc1)c1nc2c(c(=O)n(Cc3ccccc3F)c(=O)n2C)n1C [Analog 16]
3,5.80,CN(Cc1ccccc1)c1nc2c(c(=O)n(Cc3cccc(F)c3)c(=O)n2C)n1C [Analog 17]
4,5.89,CN(Cc1ccccc1)c1nc2c(c(=O)n(Cc3ccc(F)cc3)c(=O)n2C)n1C [Analog 18]
5,5.70,CN(Cc1ccccc1)c1nc2c(c(=O)n(Cc3ccccc3Cl)c(=O)n2C)n1C [Analog 19]
6,5.72,CN(Cc1ccccc1)c1nc2c(c(=O)n(Cc3cccc(Cl)c3)c(=O)n2C)n1C [Analog 20]
7,5.59,CN(Cc1ccccc1)c1nc2c(c(=O)n(Cc3ccc(Cl)cc3)c(=O)n2C)n1C [Analog 21]
8,5.80,Cc1ccccc1Cn1c(=O)c2c(nc(N(C)Cc3ccccc3)n2C)n(C)c1=O [Analog 22]
9,5.82,Cc1cccc(Cn2c(=O)c3c(nc(N(C)Cc4ccccc4)n3C)n(C)c2=O)c1 [Analog 23]
10,5.26,Cc1ccc(Cn2c(=O)c3c(nc(N(C)Cc4ccccc4)n3C)n(C)c2=O)cc1 [Analog 24]
11,< 5.00,CN(Cc1ccccc1)c1nc2c(c(=O)n(Cc3ccccc3C(F)(F)F)c(=O)n2C)n1C [Analog 25]
12,5.38,CN(Cc1ccccc1)c1nc2c(c(=O)n(Cc3cccc(C(F)(F)F)c3)c(=O)n2C)n1C [Analog 26]
13,5.01,CN(Cc1ccccc1)c1nc2c(c(=O)n(Cc3ccc(C(F)(F)F)cc3)c(=O)n2C)n1C [Analog 27]
14,5.60,CN(Cc1ccccc1)c1nc2c(c(=O)n(Cc3ccccc3C#N)c(=O)n2C)n1C [Analog 28]
15,5.62,CN(Cc1ccccc1)c1nc2c(c(=O)n(Cc3cccc(C#N)c3)c(=O)n2C)n1C [Analog 29]
16,5.62,CN(Cc1ccccc1)c1nc2c(c(=O)n(Cc3ccc(C#N)cc3)c(=O)n2C)n1C [Analog 30]
17,5.89,COc1ccccc1Cn1c(=O)c2c(nc(N(C)Cc3ccccc3)n2C)n(C)c1=O [Analog 31]
18,< 5.00,COc1ccc(Cn2c(=O)c3c(nc(N(C)Cc4ccccc4)n3C)n(C)c2=O)cc1 [Analog 33]
19,< 5.00,CCn1c(N(C)Cc2ccccc2)nc2c1c(=O)n(Cc1ccccc1)c(=O)n2C [Analog 41]
20,< 5.00,CCCn1c(N(C)Cc2ccccc2)nc2c1c(=O)n(Cc1ccccc1)c(=O)n2C [Analog 42]
